# Assay results as given in US20250084074A1, “SUBSTITUTED HETEROCYCLES AS HSET INHIBITORS” (MERCK PATENT GMBH, priority 2022, published 2025).
# Target: HSET full length protein (Homo sapiens (Human), UniProt Q9BW19)
# Assay: HSET ADP-Glo Assay S - 3 μM ATP
# Type: biochemical
# Details: 5 nM HSET, 70 μg/mL microtubule, 80 min at rt, read-out: COMBINED HSET ADP GLO IC50
# Experimental: Example 281: Testing compounds of the present invention for inhibitory activities against HSET—HSET ADP-Glo Assay S—3 μM ATP
# Reagents: (+4° C. Storage) • Paclitaxel Prod.No.TXD.01 2 mM in DMSO (from Universal Biologicals Cambridge). • Tubulin Protein (Pre-formed Microtubules): Bovine Brain Prod.No.MT001-XL Lot.025 10 mg/mL (from Universal Biologicals Cambridge).
# Reagents: (−80° C. Storage) • MT001-XL—Tubulin Protein (Pre-formed Microtubules): Bovine Brain—reconstituted in buffer—15 mM PIPES pH7, 1 mM MgCl2, 20 μM paclitaxel (aliquots at 10 mg/mL) from Universal Biologicals Cambridge. • HSET full length protein—Current batch is FL HSET Prep1 (SEQ-000096_002-01_01) • Buffer is 20 mM Hepes pH 7.5, 200 mM NaCl, 2 mM TCEP, 5% glycerol (5 μL aliquots at 10.2 μM)
# Reagents: (−20° C. Storage) • ADP-Glo Kinase Assay kit (Promega Prod.No.V9102) 10,000 assay points • ADP-Glo reagent (50 mL), Kinase Detection Reagent (100 mL), and Ultrapure ATP (10 mM) aliquoted
# Buffer Stocks (filtered and stored at rt for up to 1 month) • HEPES acid, 4-(2-Hydroxyethyl)piperazine-1-ethanesulfonic acid MW:238, 238.3 mg/mL=1 M • 7149 mg/30 mL=1M (pH to 6.8 with 5 M NaOH) • PIPES, 1,4-Piperazinediethanesulfonic acid MW: 302.4, 30.24 mg/mL=100 mM; 907.2 mg/30 mL=100 mM (pH to 7 with 5 M NaOH, white cloudy suspension until the pH changes) • EGTA, Ethylene glycol-bis(2-aminoethylether)-N,N,N′,N′-tetraacetic acid MW: 380.35, 38.035 mg/mL=100 mM • 1901.75 mg/50 mL=100 mM (pH to ˜7 with 5 M NaOH)—takes a long time to get into solution and for pH to stabilize • Triton-X-100, MW: 625, 62.5 mg/mL=100 mM (6.25% w/v) (viscous, pipette Triton X-100 with a Gilson using a trimmed pipette tip)
# ECHO Protocol • Create an ECHO intermediate plate by adding 24.5 μL DMSO to columns 1 & 2, and 40 μL DMSO to columns 23 & 24 of an ECHO 384PP plate • Add 100 nL of compound/DMSO per well in 384-well Proxi-Plate Plus (white) —Perkin Elmer Cat #6008289 using ECHO dose response protocol 100 nL normal to proxi_8pt_200 uM.
# Assay buffer (Keep on ice): HEPES pH 6.8, MgCl2, EGTA, Triton X-100, DTT, HPLC H2O Microtubule Working Solution (3.2): • 1 ml PM buffer: PIPES pH 7.0, MgCl2, HPLC H2O, Paclitaxel, mix well, store at rt • Then add 26.4 μL of 10 mg/ml microtubules to 724 μL of the above PM buffer to make 750 μL of microtubule working solution @350 μg/mL microtubules (store at rt)
# Stock HSET enzyme solution (3.1)—keep on ice • Add 1.33 μL 10.2 μM HSET Prepi (SEQ-000096_002-01_01) to 1358 μL assay buffer to make a 10 nM stock for a 5 nM final assay concentration (1/1020 dilution).
# HSET/Microtubule working solution (3.3) • Mix solutions 3.1 and 3.2 in the ratio of 2.5:1 (1214.3 μL 3.1+485.7 μL 3.2) keep at rt for 15 min • 3.2 is diluted 3.5-fold, 3.1 is diluted 1.4-fold BLANK solution is 357 μL 2XAB+143 μL microtubule working solution 3.2. (Same proportions as HSET/Microtubule working solution (3.3))
# ATP Working solution is 1 μL 10 mM UltraPure ATP (Promega kit)+999 μL ddH20 gives 10 μM ATP for a 3 μM final assay concentration, stored on ice.
# Assay procedure in PROXIPLATE 384 PLUS WHITE (Perkin Elmer) plates (Remove 2.4 mL ADP Glo and 4.5 mL Kinase detection reagent from freezer to warm up to rt) • Add 3.5 μL BLANK solution to assay plate (column 12) • Add 3.5 μL HSET/Microtubule solution (3.3) (columns 1-11 & 13-24) • Centrifuge at 1000 rpm for 1 min • (pre-incubate enzyme and compound for 10 min)
# Add 1.5 μL of 10 μM ATP to start reaction gives a final [HSET] of 5 nM, [ATP] of 3 μM and [microtubule] of 70 μg/mL, centrifuge at 1000 rpm for 1 min and incubated at rt for 80 min.
# After the 80-minute incubation, stop reaction by adding 5 μL ADP-Glo reagent to all wells. Centrifuge for 1 min at 1000 rpm, leave for 40 min at rt.
# In the dark/away from direct light, add 10 μL Kinase Detection Reagent (KDR) to all wells, Seal plate with a Topseal (Perkin Elmer Cat #6050185) and centrifuge as above, leave for 40 min at rt covered in foil. […]
# HSET full length protein, sequence (Q9BW19 whole entry): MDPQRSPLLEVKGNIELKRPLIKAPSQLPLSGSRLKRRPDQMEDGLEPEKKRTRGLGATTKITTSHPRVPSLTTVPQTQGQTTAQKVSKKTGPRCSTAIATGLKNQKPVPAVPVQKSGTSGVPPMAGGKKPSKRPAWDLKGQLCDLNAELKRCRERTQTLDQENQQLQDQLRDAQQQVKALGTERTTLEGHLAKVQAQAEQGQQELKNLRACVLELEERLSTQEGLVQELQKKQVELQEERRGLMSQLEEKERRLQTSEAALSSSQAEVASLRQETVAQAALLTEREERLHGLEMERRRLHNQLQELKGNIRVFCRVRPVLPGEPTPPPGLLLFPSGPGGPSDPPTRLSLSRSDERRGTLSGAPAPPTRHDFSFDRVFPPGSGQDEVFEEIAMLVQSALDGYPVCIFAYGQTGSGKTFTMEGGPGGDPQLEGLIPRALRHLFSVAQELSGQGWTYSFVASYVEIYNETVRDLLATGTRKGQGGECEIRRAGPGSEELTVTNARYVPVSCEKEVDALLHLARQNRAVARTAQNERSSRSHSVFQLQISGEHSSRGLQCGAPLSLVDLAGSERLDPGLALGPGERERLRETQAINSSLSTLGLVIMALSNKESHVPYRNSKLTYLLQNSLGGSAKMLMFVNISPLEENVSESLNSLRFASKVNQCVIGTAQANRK
row,IC50,Compound
1,17 nM,"Cc1nc(-c2ccc3ccnc(N[C@H]4C[C@@H](C(=O)Nc5nc(C)c(C(=O)O[C@H](C)C(F)(F)F)s5)C4)c3c2)no1 (stereo in doubt) [Example 114, [(1 R)-2,2,2-trifluoro-1-methyl-ethyl]4-methyl-2-[[3-[[7-(5-methyl-1,2,4-oxadiazol-3-yl)-1-isoquinolyl]amino]cyclobutanecarbonyl]amino]thiazole-5-carboxylate]"
2,5 nM,"Cc1nc(-c2ccc3ccnc(N[C@H]4C[C@@H](C(=O)Nc5nc(C)c(C(=O)O[C@@H](C)C(F)(F)F)s5)C4)c3c2)no1 (stereo in doubt) [Example 115, [(1 S)-2,2,2-trifluoro-1-methyl-ethyl]4-methyl-2-[[3-[[7-(5-methyl-1,2,4-oxadiazol-3-yl)-1-isoquinolyl]amino]cyclobutanecarbonyl]amino]thiazole-5-carboxylate]"
3,2730 nM,"CCOC(=O)c1sc(NC(=O)CCNC(=O)c2cccc(C)c2)nc1C [Example 1, Ethyl 4-methyl-2-(3-(3-methylbenzamido)propanamido)thiazole-5-carboxylate]"
4,3970 nM,"CCOC(=O)c1sc(NC(=O)CCNC(=O)c2cccc(N3CCCC3)c2)nc1C [Example 2, Ethyl 4-methyl-2-(3-(3-(pyrrolidin-1-yl)benzamido)propanamido)thiazole-5-carboxylate]"
5,4570 nM,"CCOC(=O)c1sc(NC(=O)CCNC(=O)c2cccc(-n3cccn3)c2)nc1C [Example 3, Ethyl 2-(3-(3-(1 H-pyrazol-1-yl)benzamido)propanamido)-4-methylthiazole-5-carboxylate]"
6,63 nM,"CCOC(=O)c1sc(NC(=O)CCNC(=O)c2cccc(-c3noc(C)n3)c2)nc1C [Example 4, Ethyl 4-methyl-2-(3-(3-(5-methyl-1,2,4-oxadiazol-3-yl)benzamido)propanamido)thiazole-5-carboxylate]"
7,1660 nM,"CCOC(=O)c1sc(NC(=O)CCNC(=O)c2ccc3c(c2)CCCC3)nc1C [Example 5, Ethyl 4-methyl-2-(3-(5,6,7,8-tetrahydronaphthalene-2-carboxamido)propanamido)thiazole-5-carboxylate]"
8,614 nM,"CCOC(=O)c1sc(NC(=O)CCNC(=O)c2cccc(-c3cnco3)c2)nc1C [Example 6, Ethyl 4-methyl-2-(3-(3-(oxazol-5-yl)benzamido)propanamido)thiazole-5-carboxylate]"
9,15600 nM,"CCOC(=O)c1sc(NC(=O)CCNC(=O)c2cccc(N3CCOCC3)c2)nc1C [Example 7, Ethyl 4-methyl-2-(3-(3-morpholinobenzamido)propanamido)thiazole-5-carboxylate]"
10,1210 nM,"CCOC(=O)c1sc(NC(=O)[C@@H](O)CNC(=O)c2cccc(C)c2)nc1C [Example 8, Ethyl (S)-2-(2-hydroxy-3-(3-methylbenzamido)propanamido)-4-methylthiazole-5-carboxylate]"
11,36 nM,"CCOC(=O)c1sc(NC(=O)CCNC(=O)c2cc(F)cc(C(=O)OC)c2)nc1C [Example 10, Ethyl 2-[3-[(3-fluoro-5-methoxycarbonyl-benzoyl)amino]propanoylamino]-4-methyl-thiazole-5-carboxylate]"
12,1830 nM,"CCOC(=O)c1sc(NC(=O)CCNC(=O)c2cccc(C(=O)OC)c2F)nc1C [Example 11, Ethyl 2-[3-[(2-fluoro-3-methoxycarbonyl-benzoyl)amino]propanoylamino]-4-methyl-thiazole-5-carboxylate]"
13,1100 nM,"CCOC(=O)c1sc(NC(=O)CCNC(=O)c2cc(C(=O)OC)ccc2Cl)nc1C [Example 12, Ethyl 2-[3-[(2-chloro-5-methoxycarbonyl-benzoyl)amino]propanoylamino]-4-methyl-thiazole-5-carboxylate]"
14,9 nM,"CCOC(=O)c1sc(NC(=O)CCNC(=O)c2cc(Cl)cc(C(=O)OC)c2)nc1C [Example 13, Ethyl 2-[3-[(3-chloro-5-methoxycarbonyl-benzoyl)amino]propanoylamino]-4-methyl-thiazole-5-carboxylate]"
15,325 nM,"CCOC(=O)c1sc(NC(=O)CCNC(=O)c2ccc(C)c(C(=O)OC)c2)nc1C [Example 14, Ethyl 2-[3-[(3-methoxycarbonyl-4-methyl-benzoyl)amino]propanoylamino]-4-methyl-thiazole-5-carboxylate]"
16,9 nM,"CCOC(=O)c1sc(NC(=O)CCNC(=O)c2cc(C)cc(C(=O)OC)c2)nc1C [Example 15, Ethyl 2-[3-[(3-methoxycarbonyl-5-methyl-benzoyl)amino]propanoylamino]-4-methyl-thiazole-5-carboxylate]"
17,301 nM,"CCOC(=O)c1sc(NC(=O)CCNC(=O)c2cc(OC)cc(C(=O)OC)c2)nc1C [Example 16, Ethyl 2-[3-[(3-methoxy-5-methoxycarbonyl-benzoyl)amino]propanoylamino]-4-methyl-thiazole-5-carboxylate]"
18,869 nM,"CCOC(=O)c1sc(NC(=O)CCNC(=O)c2cc(C#N)cc(C(=O)OC)c2)nc1C [Example 17, Ethyl 2-[3-[(3-cyano-5-methoxycarbonyl-benzoyl)amino]propanoylamino]-4-methyl-thiazole-5-carboxylate]"
19,14 nM,"CCOC(=O)c1sc(NC(=O)CCNC(=O)c2cc(Br)cc(C(=O)OC)c2)nc1C [Example 18, Ethyl 2-[3-[(3-bromo-5-methoxycarbonyl-benzoyl)amino]propanoylamino]-4-methyl-thiazole-5-carboxylate]"
20,17 nM,"CCOC(=O)c1sc(NC(=O)CCNC(=O)c2cc(CC)cc(C(=O)OC)c2)nc1C [Example 19, Ethyl 2-[3-[(3-ethyl-5-methoxycarbonyl-benzoyl)amino]-propanoylamino]-4-methyl-thiazole-5-carboxylate]"
21,737 nM,"CCOC(=O)c1sc(NC(=O)CCNC(=O)c2cc(O)cc(C(=O)OC)c2)nc1C [Example 20, Ethyl 2-[3-[(3-hydroxy-5-methoxycarbonyl-benzoyl)amino]-propanoylamino]-4-methyl-thiazole-5-carboxylate]"
22,17100 nM,"CCOC(=O)c1sc(NCCCNC(=O)c2cccc(-c3noc(C)n3)c2)nc1C [Example 21, Ethyl 4-methyl-2-[3-[[3-(5-methyl-1,2,4-oxadiazol-3-yl)benzoyl]amino]-propylamino]thiazole-5-carboxylate]"
23,6350 nM,"CCOC(=O)c1sc(NC(=O)CCNC(=O)c2cc(/C=C/c3ccccc3)cc(C(=O)OC)c2)nc1C [Example 22, Ethyl 2-[3-[[3-methoxycarbonyl-5-[(E)-styryl]benzoyl]amino]-propanoylamino]-4-methyl-thiazole-5-carboxylate]"
